Reference: patent publication US20260184662A1, “COMPOSITE OF ACID AND SALT, AND PREPARATION METHOD THEREFOR” (NANJING NUTRABUILDING BIO-TECH CO., LTD., priority 2022, published 2026)
Like-named read-outs stand apart in the source and are kept apart here.

Assays:
[1] = Determination of moisture contents with KF moisture meter at different time points; assay type: physicochemical; conditions: temperature 23° C., humidity 92.5%
From the text: (§1) For R-3-hydroxybutyric acid, potassium R-3-hydroxybutyrate, mixture of R-3-hydroxybutyric acid and potassium R-3-hydroxybutyrate, and R-3-hydroxybutyric acid·potassium R-3-hydroxybutyrate complex of Example 1, under a certain condition, KF moisture meter was used to determine the moisture contents at different time points.
as §1, with “3-hydroxybutyric” for “R-3-hydroxybutyric”, “3-hydroxybutyrate,” for “R-3-hydroxybutyrate,”, “3-hydroxybutyrate” for “R-3-hydroxybutyrate”, “7,” for “1,”
as §1, with “S-3-hydroxybutyric” for “R-3-hydroxybutyric”, “S-3-hydroxybutyrate,” for “R-3-hydroxybutyrate,”, “S-3-hydroxybutyrate” for “R-3-hydroxybutyrate”, “13,” for “1,”
as §1, with “calcium” for “potassium”, “acid·calcium” for “acid·potassium”, “19,” for “1,”
(§2) For 3-hydroxybutyric acid, calcium 3-hydroxybutyrate, mixture of 3-hydroxybutyric acid and calcium 3-hydroxybutyrate, and 3-hydroxybutyric acid·calcium 3-hydroxybutyrate complex of Example 25, under a certain condition, KF moisture meter was used to determine the moisture contents at different time points.
as §2, with “S-3-hydroxybutyric” for “3-hydroxybutyric”, “S-3-hydroxybutyrate,” for “3-hydroxybutyrate,”, “S-3-hydroxybutyrate” for “3-hydroxybutyrate”, “31,” for “25,”
as §1, with “magnesium” for “potassium”, “acid·magnesium” for “acid·potassium”, “37,” for “1,”
as §2, with “magnesium” for “calcium”, “acid·magnesium 3-hydroxy butyrate” for “acid·calcium 3-hydroxybutyrate”, “43,” for “25,”
For S-3-hydroxybutyric acid, magnesium S-3-hydroxybutyrate, mixture of S-3-hydroxybutyric acid and magnesium S-3-hydroxybutyrate, and S-3-hydroxybutyric acid·magnesium S-3-hydroxybutyrate complex of Example 49, under a certain condition, KF moisture meter was used to determine the moisture contents at different time points.
(§3) For R-3-hydroxypentanoic acid, sodium R-3-hydroxypentanoate, mixture of R-3-hydroxypentanoic acid and sodium R-3-hydroxypentanoate, and R-3-hydroxypentanoic acid·sodium R-3-hydroxypentanoate complex of Example 55, under a certain condition, KF moisture meter was used to determine the moisture contents at different time points.
as §3, with “3-hydroxypentanoic” for “R-3-hydroxypentanoic”, “3-hydroxypentanoate,” for “R-3-hydroxypentanoate,”, “3-hydroxypentanoate” for “R-3-hydroxypentanoate”, “61,” for “55,”
as §3, with “S-3-hydroxypentanoic” for “R-3-hydroxypentanoic”, “S-3-hydroxypentanoate,” for “R-3-hydroxypentanoate,”, “S-3-hydroxypentanoate” for “R-3-hydroxypentanoate”, “67,” for “55,”

[2] = Stability of complexes at 30-80° C.; assay type: physicochemical
From the text: For R-3-hydroxybutyric acid, potassium R-3-hydroxybutyrate, mixture of R-3-hydroxybutyric acid and potassium R-3-hydroxybutyrate, and R-3-hydroxybutyric acid·potassium R-3-hydroxybutyrate complex of Example 1, […]
For 3-hydroxybutyric acid, potassium 3-hydroxybutyrate, mixture of 3-hydroxybutyric acid and potassium 3-hydroxybutyrate, and 3-hydroxybutyric acid·potassium 3-hydroxybutyrate complex of Example 7, […]
For S-3-hydroxybutyric acid, potassium S-3-hydroxybutyrate, mixture of S-3-hydroxybutyric acid and potassium S-3-hydroxybutyrate, and S-3-hydroxybutyric acid·potassium S-3-hydroxybutyrate complex of Example 13, […]
For R-3-hydroxybutyric acid, calcium R-3-hydroxybutyrate, mixture of R-3-hydroxybutyric acid and calcium R-3-hydroxybutyrate, and R-3-hydroxybutyric acid·calcium R-3-hydroxybutyrate complex of Example 19, […]
For 3-hydroxybutyric acid, calcium 3-hydroxybutyrate, mixture of 3-hydroxybutyric acid and calcium 3-hydroxybutyrate, and 3-hydroxybutyric acid·calcium 3-hydroxybutyrate complex of Example 25, […]
For S-3-hydroxybutyric acid, calcium S-3-hydroxybutyrate, mixture of S-3-hydroxybutyric acid and calcium S-3-hydroxybutyrate, and S-3-hydroxybutyric acid·calcium S-3-hydroxybutyrate complex of Example 31, […]
For R-3-hydroxybutyric acid, magnesium R-3-hydroxybutyrate, mixture of R-3-hydroxybutyric acid and magnesium R-3-hydroxybutyrate, and R-3-hydroxybutyric acid·magnesium R-3-hydroxybutyrate complex of Example 37, […]
For 3-hydroxybutyric acid, magnesium 3-hydroxybutyrate, mixture of 3-hydroxybutyric acid and magnesium 3-hydroxybutyrate, and 3-hydroxybutyric acid·magnesium 3-hydroxybutyrate complex of Example 43, […]
For S-3-hydroxybutyric acid, magnesium S-3-hydroxybutyrate, mixture of S-3-hydroxybutyric acid and magnesium S-3-hydroxybutyrate, and S-3-hydroxybutyric acid·magnesium S-3-hydroxybutyrate complex of Example 49, […]
For R-3-hydroxypentanoic acid, sodium R-3-hydroxypentanoate, mixture of R-3-hydroxypentanoic acid and sodium R-3-hydroxypentanoate, and R-3-hydroxypentanoic acid·sodium R-3-hydroxypentanoate complex of Example 55, […]
For 3-hydroxypentanoic acid, sodium 3-hydroxypentanoate, mixture of 3-hydroxypentanoic acid and sodium 3-hydroxypentanoate, and 3-hydroxypentanoic acid·sodium 3-hydroxypentanoate complex of Example 61, […]
For S-3-hydroxypentanoic acid, sodium S-3-hydroxypentanoate, mixture of S-3-hydroxypentanoic acid and sodium S-3-hydroxypentanoate, and S-3-hydroxypentanoic acid·sodium S-3-hydroxypentanoate complex of Example 67, […]

Stability [2] | Molecule | moisture content (%) ([1]; 30 min) | moisture content (%) ([1]; 1 h) | moisture content (%) ([1]; 2 h) | moisture content (%) ([1]; 4 h) | moisture content (%) ([1]; 6 h) | moisture content (%) ([1]; 7 h) | moisture content (%) ([1]; 11 h) | moisture content (%) ([1]; 22 h) | Stability ([2]; 30° C.) | Stability ([2]; 40° C.) | Stability ([2]; 60° C.) | Stability ([2]; 70° C.) | Stability ([2]; 80° C.)
unchanged | CC[C@H](O)CC(=O)[O-].[Na+] [Sodium S-3-hydroxypentanoate, sodium S-3-hydroxypentanoate] | 0.91% | 1.73% | 2.91% | 4.43% | 6.22% | 6.79% | 10.61% | 20.44% |  |  |  |  | 
 | calcium 3-hydroxybutyrate | 0.97% | 1.81% | 2.34% | 4.12% | 5.22% | 6.01% | 10.24% | 17.72% | unchanged | unchanged | melted | melted | melted
 | calcium R-3-hydroxybutyrate | 0.92% | 1.82% | 2.43% | 4.22% | 5.35% | 6.04% | 10.44% | 17.68% | unchanged | unchanged | melted | melted | melted
 | magnesium 3-hydroxybutyrate | 0.81% | 1.25% | 2.23% | 4.12% | 6.43% | 8.14% | 12.42% | 18.66% | unchanged | unchanged | Melted | melted | melted
 | magnesium R-3-hydroxybutyrate | 0.82% | 1.22% | 2.13% | 4.22% | 6.35% | 8.04% | 12.44% | 18.68% | unchanged | unchanged | melted | melted | melted
